The source of these data is paper doi:10.1101/2024.10.13.618094 (bioRxiv, 2024).

What is called Km is the substrate concentration at which the rate is half of its maximum.

Entries after “also recorded” stand apart in the source; their conditions may differ. *1 amine or outer side, *2 acyl side, *3 side chain or, on linkers, in order; H or OH if unused. Where a SMILES comes first, the peptide text is derived from it. [ ]: non-standard residue; d: D form. The star is where a group is joined. Pheol(OBn) = c1ccc(COC[C@H](Cc2ccccc2)N*)cc1; Dnp = O=[N+]([O-])c1ccc(*)c([N+](=O)[O-])c1; NH(4-phenylbutyl) = c1ccc(CCCCN*)cc1; Mca = COc1ccc2c(CC(=O)*)cc(=O)oc2c1; X1 = C[C@H](N[*:1])C(=O)C(=O)[*:2]

Data set [1] concerns purified wild-type RHBDL4. In words: TAMRA-FP active-site probe competition on purified RHBDL4. In kind it is binding, human. The conditions noted are these: purified RHBDL4, SDS-PAGE, Cy3 fluorescence; compared with inactive RHBDL4-S144A control.
Excerpt: Inhibition of recombinant purified RHBDL4 proteolytic activity by N-substituted peptidyl α-ketoamides. (A) Proteolytic rates of the fluorescent substrate IQ6 by RHBDL4 in the presence of increasing concentrations of the general protease inhibitors, Dicyclocoumarin (DCI), tosyl-phenylalanine-chloromethyl ketone (TPCK) and 4-(2-aminoethyl) benzenesulfonyl fluoride (AEBSF). […] (D) Representative inhibition curve derived from measuring rates of RHBDL4 proteolysis of the fluorescent substrate IQ6 with increasing concentrations of compound 1a. (E) Same as (D), except inhibition curve was derived from using increasing concentrations of compound 1b. […] Reactions were quenched with 1×Laemmli buffer and loaded on 12% SDS-PAGE gel. Post-transfer membranes were visualized using a fluorescence Cy3 filter and by western blotting using an α-RHBDL4 antibody. For (A), (D), and (E), all inhibitors were pre-incubated with RHBDL4 for 1hr and allowed to react with the IQ6 substrate for 2 h. Assays were performed in triplicate, and data points represent the average ± standard deviation.
In vitro inhibition of RHBDL4 activity with TMED7-derived peptidyl α-ketoamides. […] (B) Representative inhibition curve derived from measuring rates of RHBDL4 proteolysis of the fluorescent substrate IQ6 with increasing concentrations of compound 3. (C) Same as (B), except inhibition curve was derived from using increasing concentrations of compound 4. […] Reactions were quenched with 1×Laemmli buffer and loaded on 12% SDS-PAGE gel. Post-transfer membranes were visualized using a fluorescence Cy3 filter and by western blotting using an α-RHBDL4 antibody. […] For (B) and (C), all inhibitors were pre-incubated with RHBDL4 for 1hr and allowed to react with the IQ6 substrate for 2 h. All assays were performed in triplicate, and data points represent the average ± standard deviation.
Data set [2] concerns RHBDL4-GFP in ER-enriched microsomes from HEK293T cells. As to the kind of experiment: TAMRA-FP competition label assay in ER-enriched microsomes. It is filed as binding, human. The conditions noted are these: 100 μM compound, preincubated 1 h at 37°C; 500 nM TAMRA-FP for 2 h at 37°C; immunoprecipitation, Cy3 fluorescence. On the procedure:
We aimed to investigate our RHBDL4 inhibitors in a more physiological context. […] To achieve this, we prepared ER-enriched microsomes from HEK293T cells transfected with RHBDL4-GFP, then pre-incubated microsomes with 100 μM of each compound, before TAMRA-FP was added to the microsomal fractions. RHBDL4-GFP was immunoprecipitated and visualized for TAMRA-FP fluorescence signal and western blotting. […] We surmise that the peptidyl α-ketoamides may have low membrane penetrability, making them weak inhibitors in microsome and cell-based assays. Further refinement is needed to design peptidyl α-ketoamides that effectively penetrate lipids and inhibit RHBDL4 activity in its native context.
Figure 6. RHBDL4 inhibition studies in ER-enriched microsomes ER-enriched microsomes were preincubated with 100 μM of compounds or DMSO vehicle control followed by addition of 500 nM of TAMRA-FP serine hydrolase probe. […] TAMRA-FP labeling was analyzed via Cy3 filter followed by western blotting using α-GFP antibody.
ER-enriched microsomes were obtained by hypotonic swelling and centrifugation from Hek293T cells 24 h after transfection. […] TAMRA-FP-labelling was analyzed in the wet gel with a green light source (535 nm) and a Cy3 filter by detecting fluorescence emission using ImageQuant 800 Fluor CCD imager (Cytiva) followed by western blotting using a α-GFP antibody (Roche).

The target of a further data set is T1, recombinant human RHBDL4 (Homo sapiens, UniProt Q8TEB9).
T1 construct: The entire RHBDL4 and RHBDL4-S144A cDNAs were subcloned into the pcDNA3.1 vector; 6xHis (C, cleaved yes); made in house; host or cells: Freestyle 293-F cells (transient transfection, pcDNA3.1-HisA)
T1 sequence (Q8TEB9 1-315): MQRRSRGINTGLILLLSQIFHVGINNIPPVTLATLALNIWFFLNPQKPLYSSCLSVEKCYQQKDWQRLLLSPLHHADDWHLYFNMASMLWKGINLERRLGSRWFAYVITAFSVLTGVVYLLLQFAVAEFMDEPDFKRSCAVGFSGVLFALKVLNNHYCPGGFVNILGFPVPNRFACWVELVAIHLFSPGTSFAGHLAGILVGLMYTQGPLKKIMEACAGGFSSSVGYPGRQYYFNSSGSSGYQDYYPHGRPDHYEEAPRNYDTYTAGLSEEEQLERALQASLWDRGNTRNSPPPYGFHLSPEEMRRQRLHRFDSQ
As to the kind of experiment: FRET-based cleavage assay with fluorogenic substrates (Michaelis–Menten kinetics). In kind it is biochemical. The conditions noted are these: pH 8, 37°C, 0.1% DDM, Michaelis–Menten fit, triplicate, average ± SD. The protocol:
We employed a FRET-based assay to determine the activity of RHBDL4. The RHBDL4 proteolytic activity was tested against a suite of fluorescent, internally quenched (IQ) substrates that have been previously used to test the activity of rhomboid protease PARL (Fig. S2A)([Lysyk et al. 2021]). These substrates consist of 7–10-mer peptide sequences flanked by the fluorescent donor group 7-methoxycourmarin (mc) on the N terminus and quencher acceptor group dinitrophenol (dnp) on the C terminus (Fig. 2A) ([Arutyunova et al. 2018]). In general, the donor and acceptor are in proximity within the fluorogenic peptides and show low fluorescence due to internal quenching. Hydrolysis of the peptide bond between the donor and the acceptor leads to physical separation of the FRET pairs and increase in fluorescence, which would be proportional to RHBDL4 protease activity (Fig. 2A).
The reaction setup in our FRET assay enabled the direct determination of Michaelis–Menten kinetic parameters Km and kcat for the cleavage of IQ6, IQ41, and IQ46 by RHBDL4. Our fluorescence reading data were converted to μM/h using the standard calibration curve for all three IQ substrates, and the correction factor for the inner filter effect was applied. We confirmed that purified RHBDL4 followed Michaelis–Menten kinetics with KmIQ6=10.73±2μM , KmIQ41=5.63±2μM , and KmIQ46=7.19±1μM and kcatIQ6=7.33±0.6h^−1 , kcatIQ41=2.41±0.6h^−1 , and kcatIQ46=3.62±0.08h^−1 (Fig. 2B and S2B).
The enzymatic assay was performed as previously described (Arutyunova et al., 2014, [Arutyunova et al., 2018]). […] The FRET-based cleavage assay was conducted in a fluorescence multi-well plate reader (SynergyMx, BioTek, VT, USA). Upon excitation at 320 nm, the emission intensity at 400 nm was recorded for 2 h at minimal intervals under shaking conditions and plotted using the GraphPad PRISM software. The initial velocities were defined as the slopes of the curve of the generated product as a function of time. The plots of the generated product against the corresponding substrate concentration were fitted with the Michaelis–Menten equation. Catalytic parameters were extrapolated using GraphPad PRISM. […] The samples were desalted using C18 tips (Rainin, Columbus, OH, USA), eluted in 80% acetonitrile, and dried down in a vacuum centrifuge prior to mass spectrometry analysis.
All the calculations for Km, Vmax, and Kcat for RHBDL4 and its mutants were performed using GraphPad PRISM.

Data set [3] has as its system RHBDL4. As to the kind of experiment: 1.5 μM of wild-type RHBDL4 in activity buffer containing 20 mM citrate phosphate pH 8.0, 150 mM NaCl, 20% (v/v) glycerol, and 0.1% (w/v) DDM. Particulars: human, 37°C, up to 2 h.
Data set [4] concerns RHBDL4. In words: 1.5 μM of wild-type RHBDL4 (purified recombinant). The conditions noted are these: human, room temperature, up to 4 h.
Data set [5] concerns the target T2, rhomboid protease RHBDL4, wild type (recombinant, purified) (human) (UniProt Q8TEB9).
T2 sequence: T1 sequence (Q8TEB9 1-315)

For data set [6], the target named is T3, rhomboid protease RHBDL4, wild type (recombinant, purified) (human, UniProt Q8TEB9 1-315).
T3 sequence (looked up): T1 sequence (Q8TEB9 1-315)
As to the kind of experiment: cell-based or functional assay.

Regarding `CC(=O)N[C@H](C(=O)N[C@@H](CCCNC(=N)N)C(=O)NC(Cc1c[nH]cn1)C(=O)N[C@@H](C)C(=O)C(=O)N[C@H](COCc1ccccc1)Cc1ccccc1)C(C)C` (some centres unmarked) [Compound 1a], the “Competition with TAMRA-FP probe for the RHBDL4 catalytic site (fluorescent signal)” value (“Competition with TAMRA-FP probe” below) in data set [1] is on record as “significant reduction of fluorescent signal”. In the case of `CSCC[C@H](NC(=O)[C@H](CCC(N)=O)NC(C)=O)C(=O)N[C@@H](CCC(=O)O)C(=O)N[C@@H](CO)C(=O)N[C@@H](C)C(=O)C(=O)NCCCCc1ccccc1` [Compound 3] (Ac-QMES[X1]-{NH(4-phenylbutyl)}), the “Competition with TAMRA-FP probe” value in data set [1] is listed as “reduction in overall fluorescent signal”. Besides, in data set [2], the “Effect on TAMRA-FP labeling of RHBDL4-GFP in microsomes” value was “reduced”.

Turning to `CSCC[C@H](NC(=O)[C@H](CCC(N)=O)NC(C)=O)C(=O)N[C@@H](CCC(=O)O)C(=O)N[C@@H](CO)C(=O)N[C@@H](C)C(=O)C(=O)N[C@H](COCc1ccccc1)Cc1ccccc1` [Compound 4] (Ac-QMES[X1]-{Pheol(OBn)}), the “Competition with TAMRA-FP probe” value in data set [1] was “reduction in overall fluorescent signal”. Also, the “Effect on TAMRA-FP labeling of RHBDL4-GFP in microsomes” value in data set [2] is reported as “reduced”. Turning to “Ac-QMESA-4mc [KSp207, TMED7-derived fluorescent substrate Ac-QMESA-4mc]”, on recombinant human RHBDL4, the Km is 3.09 ± 1 µM. For “Mca-Arg-Pro-Pro-Gly-Phe-Ser-Ala-Phe-Lys (DNP)-OH (Mca-RPPGFSAFK(Dnp)-OH; SMILES COc1ccc2c(CC(=O)N[C@@H](CCCNC(=N)N)C(=O)N3CCC[C@H]3C(=O)N3CCC[C@H]3C(=O)NCC(=O)N[C@@H](Cc3ccccc3)C(=O)N[C@@H](CO)C(=O)N[C@@H](C)C(=O)N[C@@H](Cc3ccccc3)C(=O)N[C@@H](CCCCNc3ccc([N+](=O)[O-])cc3[N+](=O)[O-])C(=O)O)cc(=O)oc2c1) [IQ6, fluorescent internally quenched substrate mca-…(dnp)]”, in the data set with recombinant human RHBDL4, the Km stood at 10.7 ± 2 µM. On to mca-AVFLSAVAG(dnp), for which the not cleaved result in the data set with RHBDL4 [3] is “did not observe any RHBDL4-catalyzed activity”.

On to “mca-FLVRGK(dnp) [IQ46, fluorescent internally quenched substrate mca-FLVRGK(dnp)]”, for which the Km at recombinant human RHBDL4 was 7.19 ± 1 µM. Take “mca-FVTKGK(dnp) [IQ41, fluorescent internally quenched substrate mca-FVTKGK(dnp)]”: the Km on recombinant human RHBDL4 stood at 5.63 ± 2 µM.

Take mca-RPKPYAvWMK(dnp): the not cleaved entry in the data set with RHBDL4 [3] was “did not observe any RHBDL4-catalyzed activity”. In the case of mca-RPPGFSAFK(dnp), the cleaved bond result in the data set with RHBDL4 [4] is given as “Ala-Phe, 4 h; also recorded: Ser-Ala, 4 h”. Consider “peptidyl α-ketoamide compound 1a (Ac-VRHA-CONH-CH(Bn)-CH2OBn) (peptide)”, for which the IC50 of inhibition of RHBDL4 proteolysis of the fluorescent substrate IQ6 (in vitro FRET-based cleavage assay; 1 h pre-incubation, 2 h reaction) in data set [5] was 2310 nM. Consider “peptidyl α-ketoamide compound 1b (Ac-VRHA-CONH-CH(Bn)-CH2OBn) (peptide)”, for which the IC50 of inhibition of RHBDL4 proteolysis of the fluorescent substrate IQ6 (in vitro FRET-based cleavage assay; 1 h pre-incubation, 2 h reaction) in data set [5] came out at 6100 nM.

B1: peptidyl α-ketoamide compound 2 (Ac-PGFSA-CONH-(CH2)4-Ph) (peptide)
peptide: Ac-PGFSA-{α‑ketoamide ‑CONH‑(CH2)4‑Ph}
With B1, the IC50 of inhibition of RHBDL4 activity (in vitro FRET-based cleavage assay) in data set [5] was 3400 nM.

B2: peptidyl α-ketoamide compound 4 (Ac-QMESA-CONH-CH(Bn)-CH2OBn) (peptide)
peptide: Ac-QMESA-{CONH‑CH(Bn)‑CH2OBn}
modifications: also: C-terminal α-ketoamide
As for B2, the “IC50 of inhibition of RHBDL4 proteolysis of the fluorescent substrate IQ6 (in vitro FRET-based cleavage assay; 1 h pre-incubation, 2 h reaction)” value in data set [6] stood at 85 nM.

B3: peptidyl α-ketoamide compound 3 (Ac-QMESA-CONH-(CH2)4-Ph) (peptide)
peptide: Ac-QMESA-{CONH‑(CH2)4‑Ph}
modifications: also: C-terminal α-ketoamide
With B3, the “IC50 of inhibition of RHBDL4 proteolysis of the fluorescent substrate IQ6 (in vitro FRET-based cleavage assay; 1 h pre-incubation, 2 h reaction)” value in data set [6] was 54 nM.
